The target of the assay is Alpha-2 adrenergic receptor (Rattus norvegicus). Description: Compound was tested for its binding affinity against Alpha-2 adrenergic receptor.

Among the data in BindingDB's records for doi:10.7270/Q2930WC4 (n/a, 1995) are Ki values, retold here.

A word on the Ki: it is the dissociation constant of the complex between target and ligand, obtained from inhibition or displacement. Higher therefore signals lower affinity.

`CCCN(CCCCCCN1CCC[C@@H]1Cc1ccc(O)c(O)c1)CCc1ccc(O)c(O)c1` showed a Ki of 0.302 µM.
